What was measured:
Type in all cases: cell-based
Conditions in all cases: compounds at 50 nM and 500 nM
IKZF1 = molecular target: T1, IKZF1 (Homo sapiens, UniProt Q13422+Q96SW2); assay: Western blot degradation of IKZF1 in hPBMCs (24 h)
T1 construct: The supernatant was aspirated as the extracted total cell protein; endogenous in cells; host or cells: human peripheral blood mononuclear cells (hPBMCs)
Method in brief: (§1)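 In this assay, each compound was incubated with human PBMCs for 24 h at 50 nM and 500 nM. Target levels were measured by Western blot densitometry normalised to an internal control.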

IKZF3 = molecular target: T2, IKZF3 (Homo sapiens, UniProt Q96SW2+Q9UKT9); assay: Western blot degradation of IKZF3 in hPBMCs (24 h)
T2 construct: The supernatant was aspirated as the extracted total cell protein; endogenous in cells; host or cells: human peripheral blood mononuclear cells (hPBMCs)
Method in brief: as §1

WEE1 = molecular target: T3, WEE1 (Homo sapiens, UniProt P30291+Q96SW2); assay: Western blot degradation of WEE1 in hPBMCs (24 h)
T3 construct: The supernatant was aspirated as the extracted total cell protein; endogenous in cells; host or cells: human peripheral blood mononuclear cells (hPBMCs)
Method in brief: as §1

GSPT1 = molecular target: T4, GSPT1 (Homo sapiens, UniProt P15170+Q96SW2); assay: Western blot degradation of GSPT1 in hPBMCs (24 h)
T4 construct: The supernatant was aspirated as the extracted total cell protein; endogenous in cells; host or cells: human peripheral blood mononuclear cells (hPBMCs)
Method in brief: as §1

CK1α = molecular target: T5, CK1α (Homo sapiens, UniProt P48729+Q96SW2); assay: Western blot degradation of CK1α in hPBMCs (24 h)
T5 construct: The supernatant was aspirated as the extracted total cell protein; endogenous in cells; host or cells: human peripheral blood mononuclear cells (hPBMCs)
Method in brief: as §1

IKZF2 = molecular target: T6, IKZF2 (Homo sapiens, UniProt Q96SW2+Q9UKS7); assay: Western blot degradation of IKZF2 in hPBMCs (24 h)
T6 construct: The supernatant was aspirated as the extracted total cell protein; endogenous in cells; host or cells: human peripheral blood mononuclear cells (hPBMCs)
Method in brief: as §1

T6 sequence (Q9UKS7 whole entry): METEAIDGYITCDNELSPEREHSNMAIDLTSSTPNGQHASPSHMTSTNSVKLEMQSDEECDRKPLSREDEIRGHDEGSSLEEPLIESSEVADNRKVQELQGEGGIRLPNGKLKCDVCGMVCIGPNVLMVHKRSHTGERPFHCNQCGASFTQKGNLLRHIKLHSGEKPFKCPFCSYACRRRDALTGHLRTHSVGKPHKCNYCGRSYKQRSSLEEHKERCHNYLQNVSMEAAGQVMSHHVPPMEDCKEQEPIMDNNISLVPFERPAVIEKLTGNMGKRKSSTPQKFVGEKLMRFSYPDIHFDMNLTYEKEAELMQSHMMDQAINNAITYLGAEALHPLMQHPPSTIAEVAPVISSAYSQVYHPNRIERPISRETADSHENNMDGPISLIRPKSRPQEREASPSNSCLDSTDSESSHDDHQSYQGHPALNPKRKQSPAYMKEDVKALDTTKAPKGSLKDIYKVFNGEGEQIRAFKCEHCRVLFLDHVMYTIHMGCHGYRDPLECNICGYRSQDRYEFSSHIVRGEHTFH
T6 sequence (Q96SW2 whole entry): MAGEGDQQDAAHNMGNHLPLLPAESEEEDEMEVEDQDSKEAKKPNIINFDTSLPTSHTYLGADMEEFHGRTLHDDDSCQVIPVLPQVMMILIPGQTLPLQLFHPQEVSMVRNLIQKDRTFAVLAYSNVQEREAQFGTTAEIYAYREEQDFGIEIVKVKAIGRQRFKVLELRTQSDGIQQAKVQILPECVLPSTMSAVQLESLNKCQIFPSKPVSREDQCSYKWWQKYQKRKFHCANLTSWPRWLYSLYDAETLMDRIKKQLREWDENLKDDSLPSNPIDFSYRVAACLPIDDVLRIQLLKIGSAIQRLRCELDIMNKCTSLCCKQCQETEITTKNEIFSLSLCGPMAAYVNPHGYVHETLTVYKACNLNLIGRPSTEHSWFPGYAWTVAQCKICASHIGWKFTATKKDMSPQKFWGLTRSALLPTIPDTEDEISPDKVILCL
T6 sequence (Q16531 whole entry partner): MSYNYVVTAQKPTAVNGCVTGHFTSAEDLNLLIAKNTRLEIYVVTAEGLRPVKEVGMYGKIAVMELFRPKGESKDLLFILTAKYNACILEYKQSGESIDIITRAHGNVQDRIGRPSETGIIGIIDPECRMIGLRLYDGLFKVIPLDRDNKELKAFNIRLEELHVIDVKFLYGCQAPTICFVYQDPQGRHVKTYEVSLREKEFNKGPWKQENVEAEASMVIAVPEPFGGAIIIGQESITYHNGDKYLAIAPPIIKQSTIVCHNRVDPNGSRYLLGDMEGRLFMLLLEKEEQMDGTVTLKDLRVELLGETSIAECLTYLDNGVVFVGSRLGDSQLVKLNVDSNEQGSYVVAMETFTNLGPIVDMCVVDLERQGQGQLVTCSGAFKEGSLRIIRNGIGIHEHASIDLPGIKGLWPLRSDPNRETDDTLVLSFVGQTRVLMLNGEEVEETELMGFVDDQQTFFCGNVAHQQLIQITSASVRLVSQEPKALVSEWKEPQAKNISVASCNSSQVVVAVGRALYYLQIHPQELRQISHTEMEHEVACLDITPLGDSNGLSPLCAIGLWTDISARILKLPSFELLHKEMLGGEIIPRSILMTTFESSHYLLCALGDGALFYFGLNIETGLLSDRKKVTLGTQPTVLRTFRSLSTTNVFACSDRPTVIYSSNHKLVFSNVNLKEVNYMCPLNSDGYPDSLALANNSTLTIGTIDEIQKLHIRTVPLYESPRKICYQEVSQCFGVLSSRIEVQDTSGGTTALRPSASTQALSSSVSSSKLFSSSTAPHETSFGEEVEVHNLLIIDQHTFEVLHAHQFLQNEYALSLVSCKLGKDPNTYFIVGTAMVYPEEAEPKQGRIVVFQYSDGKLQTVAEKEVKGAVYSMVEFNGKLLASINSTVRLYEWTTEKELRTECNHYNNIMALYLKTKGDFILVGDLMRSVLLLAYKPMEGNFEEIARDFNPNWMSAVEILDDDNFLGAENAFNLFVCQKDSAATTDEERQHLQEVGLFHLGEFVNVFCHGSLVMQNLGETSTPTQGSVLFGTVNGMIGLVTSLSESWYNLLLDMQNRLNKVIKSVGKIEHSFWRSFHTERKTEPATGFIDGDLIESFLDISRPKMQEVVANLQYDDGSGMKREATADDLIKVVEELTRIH
T5 sequence (P48729 whole entry): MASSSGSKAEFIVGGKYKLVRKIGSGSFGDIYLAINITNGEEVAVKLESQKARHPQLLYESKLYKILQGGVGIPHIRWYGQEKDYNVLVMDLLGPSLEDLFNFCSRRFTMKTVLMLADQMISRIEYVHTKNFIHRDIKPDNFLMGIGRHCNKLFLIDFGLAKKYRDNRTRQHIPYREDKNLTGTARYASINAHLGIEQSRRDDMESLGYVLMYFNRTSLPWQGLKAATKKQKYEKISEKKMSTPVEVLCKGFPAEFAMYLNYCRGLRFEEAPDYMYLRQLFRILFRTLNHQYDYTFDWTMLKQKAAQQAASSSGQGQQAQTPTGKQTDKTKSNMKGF
T5 sequence (Q96SW2 whole entry): as the sequence (Q96SW2 whole entry) above
T5 sequence (Q16531 whole entry partner): as the sequence (Q16531 whole entry partner) above
T2 sequence (Q9UKT9 whole entry): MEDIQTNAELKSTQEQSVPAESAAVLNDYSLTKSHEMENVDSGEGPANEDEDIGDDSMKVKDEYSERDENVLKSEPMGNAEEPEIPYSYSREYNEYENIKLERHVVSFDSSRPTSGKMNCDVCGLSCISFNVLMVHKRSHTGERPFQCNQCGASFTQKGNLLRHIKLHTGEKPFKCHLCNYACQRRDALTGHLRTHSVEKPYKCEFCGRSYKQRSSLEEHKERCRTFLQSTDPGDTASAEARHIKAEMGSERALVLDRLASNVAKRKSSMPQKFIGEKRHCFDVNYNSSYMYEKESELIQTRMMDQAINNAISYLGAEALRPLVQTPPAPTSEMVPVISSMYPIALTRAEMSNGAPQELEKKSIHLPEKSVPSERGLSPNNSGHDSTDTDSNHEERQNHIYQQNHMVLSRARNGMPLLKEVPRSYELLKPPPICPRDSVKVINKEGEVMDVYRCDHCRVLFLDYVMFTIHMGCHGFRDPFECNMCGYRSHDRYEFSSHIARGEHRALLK
T2 sequence (Q96SW2 whole entry): as the sequence (Q96SW2 whole entry) above
T2 sequence (Q16531 whole entry partner): as the sequence (Q16531 whole entry partner) above
T4 sequence (P15170 whole entry): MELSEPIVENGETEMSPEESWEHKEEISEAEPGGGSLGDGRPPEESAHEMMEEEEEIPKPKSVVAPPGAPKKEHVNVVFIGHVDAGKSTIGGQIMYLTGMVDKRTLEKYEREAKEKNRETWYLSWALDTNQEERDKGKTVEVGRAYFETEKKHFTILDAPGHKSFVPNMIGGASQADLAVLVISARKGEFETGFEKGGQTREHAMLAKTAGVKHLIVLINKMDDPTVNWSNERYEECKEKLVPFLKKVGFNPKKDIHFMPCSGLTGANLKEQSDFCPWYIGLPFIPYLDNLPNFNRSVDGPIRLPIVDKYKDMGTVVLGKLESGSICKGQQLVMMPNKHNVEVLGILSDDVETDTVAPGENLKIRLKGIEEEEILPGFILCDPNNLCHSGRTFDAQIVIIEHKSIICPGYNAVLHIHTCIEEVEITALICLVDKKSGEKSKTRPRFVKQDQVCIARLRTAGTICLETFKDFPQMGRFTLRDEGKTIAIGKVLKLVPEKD
T4 sequence (Q96SW2 whole entry): as the sequence (Q96SW2 whole entry) above
T4 sequence (Q16531 whole entry partner): as the sequence (Q16531 whole entry partner) above
T1 sequence (Q13422 whole entry): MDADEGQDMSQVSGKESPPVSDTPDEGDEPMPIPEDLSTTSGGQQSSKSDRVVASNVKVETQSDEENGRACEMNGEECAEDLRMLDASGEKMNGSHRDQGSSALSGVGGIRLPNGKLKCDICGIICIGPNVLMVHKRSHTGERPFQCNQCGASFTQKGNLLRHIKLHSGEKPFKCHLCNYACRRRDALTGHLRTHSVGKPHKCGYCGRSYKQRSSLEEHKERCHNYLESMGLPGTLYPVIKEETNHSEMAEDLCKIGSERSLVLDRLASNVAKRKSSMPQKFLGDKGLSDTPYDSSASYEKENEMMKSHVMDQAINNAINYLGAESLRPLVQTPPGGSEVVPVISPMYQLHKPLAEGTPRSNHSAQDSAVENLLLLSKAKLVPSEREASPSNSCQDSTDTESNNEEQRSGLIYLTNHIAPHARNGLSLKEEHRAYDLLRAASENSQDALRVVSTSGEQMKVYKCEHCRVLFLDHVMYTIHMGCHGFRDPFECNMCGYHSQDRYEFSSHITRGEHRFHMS
T1 sequence (Q96SW2 whole entry): as the sequence (Q96SW2 whole entry) above
T1 sequence (Q16531 whole entry partner): as the sequence (Q16531 whole entry partner) above

| Structure (SMILES) | IKZF1 substrate protein remaining % (IKZF1) | IKZF3 substrate protein remaining % (IKZF3) | WEE1 substrate protein remaining % (WEE1) | GSPT1 substrate protein remaining % (GSPT1) | CK1α substrate protein remaining % (CK1α) | IKZF2 substrate protein remaining % (IKZF2) |
| --- | --- | --- | --- | --- | --- | --- |
| Cc1cscc1C1CCN(Cc2ccc3c(c2)C(=O)N(N2CCC(=O)NC2=O)C3=O)CC1 [GT-05314, 2-(2,4-dioxotetrahydropyrimidin-1(2H)-yl)-5-((4-(4-methylthiophen-3-yl)piperidin-1-yl)methyl)isoindoline-1,3-dione] | B (80%< substrate protein remaining % ≤100%) | B (80%< substrate protein remaining % ≤100%) | B (80%< substrate protein remaining % ≤100%) | A (0% ≤ substrate protein remaining % ≤80%) | B (80%< substrate protein remaining % ≤100%) | B (80%< substrate protein remaining % ≤100%) |
| O=C1CCN(N2C(=O)c3ccc(CN4CCC(c5ccco5)CC4)cc3C2=O)C(=O)N1 [GT-05315, 2-(2,4-dioxotetrahydropyrimidin-1(2H)-yl)-5-((4-(furan-2-yl)piperidin-1-yl)methyl)isoindoline-1,3-dione] | B (80%< substrate protein remaining % ≤100%) | B (80%< substrate protein remaining % ≤100%) | B (80%< substrate protein remaining % ≤100%) | A (0% ≤ substrate protein remaining % ≤80%) | B (80%< substrate protein remaining % ≤100%) | B (80%< substrate protein remaining % ≤100%) |
| Cc1cscc1C1=CCN(Cc2ccc3c(c2)C(=O)N(N2CCC(=O)NC2=O)C3=O)CC1 [GT-05316, 2-(2,4-dioxotetrahydropyrimidin-1(2H)-yl)-5-((4-(4-methylthiophen-3-yl)-3,6-dihydropyridin-1(2H)-yl)methyl)isoindoline-1,3-dione] | B (80%< substrate protein remaining % ≤100%) | B (80%< substrate protein remaining % ≤100%) | B (80%< substrate protein remaining % ≤100%) | A (0% ≤ substrate protein remaining % ≤80%) | B (80%< substrate protein remaining % ≤100%) | B (80%< substrate protein remaining % ≤100%) |
| O=C1CCN(N2C(=O)c3ccc(CN4CC=C(c5ccco5)CC4)cc3C2=O)C(=O)N1 [GT-05317, 2-(2,4-dioxotetrahydropyrimidin-1(2H)-yl)-5-((4-(furan-2-yl)-3,6-dihydropyridin-1(2H)-yl)methyl)isoindoline-1,3-dione] | B (80%< substrate protein remaining % ≤100%) | B (80%< substrate protein remaining % ≤100%) | B (80%< substrate protein remaining % ≤100%) | A (0% ≤ substrate protein remaining % ≤80%) | B (80%< substrate protein remaining % ≤100%) | B (80%< substrate protein remaining % ≤100%) |
| O=C1CCN(N2C(=O)c3ccc(CN4CCN(c5ccc(Cl)cn5)CC4)cc3C2=O)C(=O)N1 [GT-05350, 5-((4-(5-chloropyridin-2-yl)piperazin-1-yl)methyl)-2-(2,4-dioxotetrahydropyrimidin-1(2H)-yl)isoindoline-1,3-dione] | B (80%< substrate protein remaining % ≤100%) | B (80%< substrate protein remaining % ≤100%) | B (80%< substrate protein remaining % ≤100%) | A (0% ≤ substrate protein remaining % ≤80%) | B (80%< substrate protein remaining % ≤100%) | B (80%< substrate protein remaining % ≤100%) |
| Cc1cccc(N2CCN(Cc3ccc4c(c3)C(=O)N(N3CCC(=O)NC3=O)C4=O)CC2)n1 [GT-05352, 2-(2,4-dioxotetrahydropyrimidin-1(2H)-yl)-5-((4-(6-methylpyridin-2-yl)piperazin-1-yl)methyl)isoindoline-1,3-dione] | B (80%< substrate protein remaining % ≤100%) | B (80%< substrate protein remaining % ≤100%) | B (80%< substrate protein remaining % ≤100%) | A (0% ≤ substrate protein remaining % ≤80%) | B (80%< substrate protein remaining % ≤100%) | A (0% ≤ substrate protein remaining % ≤80%) |
| O=C1CCN(N2Cc3cc(CN4CCN(c5nccc(Cl)c5F)CC4)ccc3C2=O)C(=O)N1 [GT-05358, 1-(5-((4-(4-chloro-3-fluoropyridin-2-yl)piperazin-1-yl)methyl)-1-oxoisoindolin-2-yl)dihydropyrimidine-2,4(1H,3H)-dione] | B (80%< substrate protein remaining % ≤100%) | B (80%< substrate protein remaining % ≤100%) | B (80%< substrate protein remaining % ≤100%) | A (0% ≤ substrate protein remaining % ≤80%) | B (80%< substrate protein remaining % ≤100%) | B (80%< substrate protein remaining % ≤100%) |
| O=C1CCN(N2Cc3cc(CN4CCN(c5ccc(Cl)nc5)CC4)ccc3C2=O)C(=O)N1 [GT-05435, 1-(5-((4-(6-chloropyridin-3-yl)piperazin-1-yl)methyl)-1-oxoisoindolin-2-yl)dihydropyrimidine-2,4(1H,3H)-dione] | B (80%< substrate protein remaining % ≤100%) | B (80%< substrate protein remaining % ≤100%) | A (0% ≤ substrate protein remaining % ≤80%) | A (0% ≤ substrate protein remaining % ≤80%) | B (80%< substrate protein remaining % ≤100%) | B (80%< substrate protein remaining % ≤100%) |
| O=C1CCN(N2Cc3cc(CN4CCN(c5cncc(Cl)c5Cl)CC4)ccc3C2=O)C(=O)N1 [GT-05436, 1-(5-((4-(4,5-dichloropyridin-3-yl)piperazin-1-yl)methyl)-1-oxoisoindolin-2-yl)dihydropyrimidine-2,4(1H,3H)-dione] | B (80%< substrate protein remaining % ≤100%) | B (80%< substrate protein remaining % ≤100%) | A (0% ≤ substrate protein remaining % ≤80%) | A (0% ≤ substrate protein remaining % ≤80%) | B (80%< substrate protein remaining % ≤100%) | B (80%< substrate protein remaining % ≤100%) |
| O=C1CCN(N2Cc3cc(CN4CCN(c5ccncc5)CC4)ccc3C2=O)C(=O)N1 [GT-05437, 1-(1-oxo-5-((4-(pyridin-4-yl)piperazin-1-yl)methyl)isoindolin-2-yl)dihydropyrimidine-2,4(1H,3H)-dione] | B (80%< substrate protein remaining % ≤100%) | B (80%< substrate protein remaining % ≤100%) | B (80%< substrate protein remaining % ≤100%) | A (0% ≤ substrate protein remaining % ≤80%) | B (80%< substrate protein remaining % ≤100%) | B (80%< substrate protein remaining % ≤100%) |
| Cc1cc(N2CCN(Cc3ccc4c(c3)CN(N3CCC(=O)NC3=O)C4=O)CC2)ccn1 [GT-05438, 1-(5-((4-(2-methylpyridin-4-yl)piperazin-1-yl)methyl)-1-oxoisoindolin-2-yl)dihydropyrimidine-2,4(1H,3H)-dione] | A (0% ≤ substrate protein remaining % ≤80%) | A (0% ≤ substrate protein remaining % ≤80%) | A (0% ≤ substrate protein remaining % ≤80%) | A (0% ≤ substrate protein remaining % ≤80%) | A (0% ≤ substrate protein remaining % ≤80%) | B (80%< substrate protein remaining % ≤100%) |
| O=C1CCN(N2Cc3cc(CN4CCN(c5ccncc5F)CC4)ccc3C2=O)C(=O)N1 [GT-05697, 1-(5-((4-(3-fluoropyridin-4-yl)piperazin-1-yl)methyl)-1-oxoisoindolin-2-yl)dihydropyrimidine-2,4(1H,3H)-dione] | B (80%< substrate protein remaining % ≤100%) | B (80%< substrate protein remaining % ≤100%) | A (0% ≤ substrate protein remaining % ≤80%) | A (0% ≤ substrate protein remaining % ≤80%) | B (80%< substrate protein remaining % ≤100%) | B (80%< substrate protein remaining % ≤100%) |
| O=C1CCN(N2Cc3cc(CN4CCN(C(c5ccccc5)c5cccnc5)CC4)ccc3C2=O)C(=O)N1 (stereo not drawn) [GT-06376, 1-(1-oxo-5-((4-(phenyl(pyridin-3-yl)methyl)piperazin-1-yl)methyl)isoindolin-2-yl)dihydropyrimidine-2,4(1H,3H)-dione] | B (80%< substrate protein remaining % ≤100%) | B (80%< substrate protein remaining % ≤100%) | A (0% ≤ substrate protein remaining % ≤80%) | A (0% ≤ substrate protein remaining % ≤80%) | B (80%< substrate protein remaining % ≤100%) | A (0% ≤ substrate protein remaining % ≤80%) |
